We go through one compound from patent EP1728511A1, “New use of phenethicillin and salts thereof” (Faust Pharmaceuticals, priority 2005, dated 2006).

The assay deals with SK-N-SH neuroblastoma cell. The experiment in a line: Serum deprivation assay, neuroblastoma cell survival (neutral red incorporation). Format: cell-based, Human. The following applies: dose range of 1-10µM, SK-N-SH cells. The text has this:
Serum provides survival factors (ex: growth factors) necessary to cell viability in culture conditions. According to the serum concentration it is possible to modulate the state of the cell viability. Total suppression of these components triggers cell death via apoptosis or necrosis. Causes of cell death could be oxidative stress and free radical accumulation, mitochondrial dysfunction or imbalanced calcium homeostasis. Human SK-N-SH is a neuronal cell line usually cultured in serum containing medium. Serum withdrawal in the cell culture condition provides a cell-based assay allowing the study of neuroprotection and the screening for drugs capable of protecting cells from death or delaying cell death (Ba et al. (2003) The establishment of a reliable cytotoxic system with SK-N-SH neuroblastoma cell culture. J Neurosci. Methods 123:11-22, Green et al. (1997) 17α-oestradiol exerts neuroprotective effect on SK-N-SH cells. J Neurosci. 17(2):511-515) SK-N-SH cells (passage 35) were obtained from ECACC. […] Cell viability was assessed 48h later. […] The dye (3mg/mL) is allowed to be taken up by the cells one hour at 37°C, 5% CO2, and is subsequently extracted by mixture of acetic acid and ethanol (1/[…]) and measured at 540 nm. […]

`CC(Oc1ccccc1)C(=O)N[C@@H]1C(=O)N2[C@@H]1SC(C)(C)[C@@H]2C(=O)O` (stereo partly drawn) [phenethicillin, (2S,5R,6R)-3,3-Dimethyl-7-oxo-6-[(1-oxo-2-phenoxypropyl)amino]-4-thia-1-azabicyclo[3.2.0]heptane-2-carboxylic acid]: the neuroblastoma cell death result is given as “significantly delayed neuroblastoma cell death”.
